In ChEMBL document CHEMBL5053546, “Peptidomimetic analogues of an Arg-Trp-x-x-Trp motif responsible for interaction of translocase MraY with bacteriophage ϕX174 lysis protein E” (Bioorg Med Chem, 2021):
Converted amounts (≈) assume the structure as drawn. The source made the active and inactive calls. No cut-off for these calls is given here.

What was measured:
[1] = tested on: Pseudomonas fluorescens; assay: Antibacterial activity against Pseudomonas fluorescence Pf-5 assessed as reduction in bacterial growth incubated overnight by microplate reader analysis; type: functional
[2] = tested on: Escherichia coli; assay: Antibacterial activity against Escherichia coli K-12 assessed as reduction in bacterial growth incubated overnight by microplate reader analysis; type: functional
[3] = tested on: Bacillus subtilis; assay: Antibacterial activity against Bacillus subtilis W23 assessed as reduction in bacterial growth incubated overnight by microplate reader analysis; type: functional
[4] = tested on: Escherichia coli; assay: Inhibition of MraY overexpressed in Escherichia coli membrane using UDP-MurNAc-L-Ala-gamma-D-Glu-L-Lys(N epsilon-dansyl)-D-Ala-D-Ala as substrate at 200 ug/ml by fluoresence enhancement assay; type: cell membranes; details: dose 200.0 µg/ml
[5] = tested on: Escherichia coli; assay: Bacteriocidal activity against Escherichia coli at 250 ug/ml incubated for 1 hr followed by alamar blue addition measured after 2 to 3 hrs by fluorescence based analysis; type: functional, organism-based; details: dose 250.0 µg/ml
[6] = tested on: Enterobacter cloacae; assay: Antibacterial activity against ESBL positive Enterobacter cloacae NCTC 13405 assessed as reduction in bacterial growth by CLSI protocol based assay; type: functional
[7] = tested on: Acinetobacter baumannii; assay: Antibacterial activity against multi drug resistant ESBL positive Acinetobacter baumannii NCTC 13420 assessed as reduction in bacterial growth by CLSI protocol based assay; type: functional
[8] = tested on: Enterococcus faecalis; assay: Antibacterial activity against high level aminoglycoside resistant Enterococcus faecalis ATCC 51299 assessed as reduction in bacterial growth by CLSI protocol based assay; type: functional
[9] = tested on: Staphylococcus aureus; assay: Antibacterial activity against Staphylococcus aureus MRSA JE2 USA300 assessed as reduction in bacterial growth by CLSI protocol based assay; type: functional
[10] = tested on: Escherichia coli; assay: (§1) Inhibition of Escherichia coli MraY overexpressed in Escherichia coli membrane using UDP-MurNAc-L-Ala-gamma-D-Glu-L-Lys(N epsilon-dansyl)-D-Ala-D-Ala and undecaprenyl phosphate as substrate assessed as reduction in lipid II synthesis at 200 uM incubated for 30 mins in presence of [3H]-UDPGlcNAc by liquid scintillation counting analysis relative to control; type: cell membranes
[11] = tested on: Klebsiella pneumoniae; assay: Antibacterial activity against ESBL positive Klebsiella pneumoniae ATCC 700603 assessed as reduction in bacterial growth by CLSI protocol based assay
[12] = tested on: Pseudomonas aeruginosa; assay: Antibacterial activity against multi drug resistant Pseudomonas aeruginosa NCTC 13437 assessed as reduction in bacterial growth by CLSI protocol based assay; type: functional
[13] = tested on: Escherichia coli; assay: Inhibition of Escherichia coli MraY overexpressed in Escherichia coli membrane using UDP-MurNAc-L-Ala-gamma-D-Glu-L-Lys(N epsilon-dansyl)-D-Ala-D-Ala as substrate at 200 uM by continuous fluoresence assay relative to control; type: cell membranes
[14] = Inhibition of MraY overexpressed in Escherichia coli membrane using UDP-MurNAc-L-Ala-gamma-D-Glu-L-Lys(N epsilon-dansyl)-D-Ala-D-Ala as substrate by continuous fluoresence assay; type: cell membranes
[15] = tested on: Escherichia coli; assay: Inhibition of MraY overexpressed in Escherichia coli membrane using UDP-MurNAc-L-Ala-gamma-D-Glu-L-Lys(N epsilon-dansyl)-D-Ala-D-Ala as substrate at 200 uM by continuous fluoresence assay; type: cell membranes
[16] = tested on: Escherichia coli; assay: as §1, with “of” for “of Escherichia coli”, “analysis” for “analysis relative to control”; type: cell membranes
[17] = tested on: Escherichia coli; assay: Antibacterial activity against Escherichia coli K-12 assessed as reduction in bacterial growth by NCCLS protocol based broth dilution method; type: functional
[18] = tested on: Bacillus subtilis; assay: Antibacterial activity against Bacillus subtilis assessed as reduction in bacterial growth by NCCLS protocol based broth dilution method; type: functional
[19] = tested on: Escherichia coli; assay: Bacteriostatic activity against Escherichia coli at 250 ug/ml incubated for 1 hr followed by alamar blue addition measured after 2 to 3 hrs by fluorescence based analysis; type: functional, organism-based; details: dose 250.0 µg/ml
[20] = tested on: Pseudomonas aeruginosa; assay: Antibacterial activity against Pseudomonas aeruginosa assessed as reduction in bacterial growth by NCCLS protocol based broth dilution method; type: functional

Row | SMILES | MIC50 [1] | MIC50 [2] | MIC50 [3] | inhibition [4] | MIC50 [6] | MIC50 [7] | MIC50 [8] | MIC50 [9] | MIC50 [11] | MIC50 [12] | also measured
1 | CCCCCCC(=O)N(CCc1c[nH]c2ccccc12)c1ccc(C(=O)N[C@@H](CCCCN)C(=O)OC)c(OCCc2c[nH]c3ccccc23)c1 | > 125 µg/mL | 4 µg/mL (≈ 5.76 µM) | 58 µg/mL (≈ 83.6 µM) |  | > 256 µg/mL | > 256 µg/mL | 16 µg/mL (≈ 23.1 µM) | > 256 µg/mL | > 256 µg/mL | > 256 µg/mL | inhibition [10]: 21%
2 | CCCCCCC(=O)Nc1ccc(C(=O)N[C@@H](CCCCN)C(=O)OC)c(OCc2ccccc2)c1 | 125 µg/mL (≈ 251 µM) | 8 µg/mL (≈ 16.1 µM) | 44 µg/mL (≈ 88.4 µM) |  | > 256 µg/mL | > 256 µg/mL | 16 µg/mL (≈ 32.2 µM) | > 256 µg/mL | > 256 µg/mL | > 256 µg/mL | inhibition [13]: 36%
3 | CCCCCCCCOC(=O)[C@H](Cc1c[nH]c2ccccc12)NC(=O)[C@@H](N)Cc1cnc[nH]1 | 21 µg/mL (≈ 46.3 µM) | 8 µg/mL (≈ 17.6 µM) | 12 µg/mL (≈ 26.5 µM) | inactive | 32 µg/mL (≈ 70.5 µM) | 64 µg/mL (≈ 141 µM) | 8 µg/mL (≈ 17.6 µM) | 16 µg/mL (≈ 35.3 µM) | 64 µg/mL (≈ 141 µM) | 8 µg/mL (≈ 17.6 µM) | 
4 | CCCCCCC(=O)N(Cc1ccccc1)c1ccc(C(=O)N[C@@H](CCCCN)C(=O)OC)c(OCc2ccccc2)c1 | 46 µg/mL (≈ 78.3 µM) | 7 µg/mL (≈ 11.9 µM) | 12 µg/mL (≈ 20.4 µM) |  | > 256 µg/mL | > 256 µg/mL | 16 µg/mL (≈ 27.2 µM) | > 256 µg/mL | > 256 µg/mL | > 256 µg/mL | inhibition [13]: 62%; IC50 [14]: 140 µM
5 | CCCCCCCCNC(=O)CNC(=O)[C@@H](N)CCCCN | 18 µg/mL (≈ 57.2 µM) | 10 µg/mL (≈ 31.8 µM) | 2 µg/mL (≈ 6.36 µM) | inactive |  |  |  |  |  |  | 
6 | CCCCCCC(=O)N(Cc1ccccc1)c1ccc(C(=O)N[C@@H](CCCCN)C(=O)OC)c(OCCc2c[nH]c3ccccc23)c1 | > 125 µg/mL | 4 µg/mL (≈ 6.24 µM) | 28 µg/mL (≈ 43.7 µM) |  | > 256 µg/mL | > 256 µg/mL | 8 µg/mL (≈ 12.5 µM) | > 256 µg/mL | > 256 µg/mL | > 256 µg/mL | inhibition [10]: 22%
7 | CCCCCCCCOC(=O)[C@H](Cc1ccc(O)cc1)NC(=O)[C@@H](N)CCCNC(=N)N | 124 µg/mL (≈ 276 µM) | 118 µg/mL (≈ 262 µM) | 25 µg/mL (≈ 55.6 µM) | inactive |  |  |  |  |  |  | 
8 | CCCCCCCCOC(=O)[C@H](Cc1c[nH]c2ccccc12)NC(=O)[C@@H](N)CCCNC(=N)N | 18 µg/mL (≈ 38.1 µM) | 5 µg/mL (≈ 10.6 µM) | 13 µg/mL (≈ 27.5 µM) | inactive | > 256 µg/mL | > 256 µg/mL | > 256 µg/mL | > 256 µg/mL | > 256 µg/mL | > 256 µg/mL | MIC50 [17]: 31 µg/mL (≈ 65.6 µM); MIC50 [18]: 8 µg/mL (≈ 16.9 µM); Activity [19]: Active; MIC50 [20]: 40 µg/mL (≈ 84.6 µM)
9 | CCCCCCC(=O)Nc1ccc(C(=O)N[C@@H](CCCCN)C(=O)OC)c(OCCc2c[nH]c3ccccc23)c1 | 56 µg/mL (≈ 102 µM) | 28 µg/mL (≈ 50.8 µM) | 28 µg/mL (≈ 50.8 µM) |  | > 256 µg/mL | > 256 µg/mL | 64 µg/mL (≈ 116 µM) | > 256 µg/mL | > 256 µg/mL | > 256 µg/mL | inhibition [10]: 12%

The next lines start with results.

Row | MIC50 [1] | MIC50 [2] | MIC50 [3] | inhibition [4] | SMILES | MIC50 [6] | MIC50 [7] | MIC50 [8] | MIC50 [9] | MIC50 [11] | MIC50 [12] | also measured
10 | 64 µg/mL (≈ 148 µM) | 11 µg/mL (≈ 25.4 µM) | 11 µg/mL (≈ 25.4 µM) | inactive | CCCCCCCCOC(=O)[C@H](Cc1ccccc1)NC(=O)[C@@H](N)CCCNC(=N)N |  |  |  |  |  |  | 
11 | 53 µg/mL (≈ 119 µM) | 37 µg/mL (≈ 83.2 µM) | 13 µg/mL (≈ 29.2 µM) | inactive | CCCCCCOC(=O)[C@H](Cc1c[nH]c2ccccc12)NC(=O)[C@@H](N)CCCNC(=N)N |  |  |  |  |  |  | 
12 | 20 µg/mL (≈ 42.4 µM) | 3 µg/mL (≈ 6.36 µM) | 7 µg/mL (≈ 14.8 µM) | inactive | CCCCCCCCNC(=O)[C@H](Cc1c[nH]c2ccccc12)NC(=O)[C@@H](N)CCCNC(=N)N |  |  |  |  |  |  | Activity [5]: Active
13 | 26 µg/mL (≈ 58.6 µM) | 17 µg/mL (≈ 38.3 µM) | 11 µg/mL (≈ 24.8 µM) | inactive | CCCCCCCCNC(=O)[C@H](Cc1c[nH]c2ccccc12)NC(=O)[C@@H](N)CCCCN |  |  |  |  |  |  | Activity [5]: Active
14 | 3 µg/mL (≈ 5.99 µM) | 3 µg/mL (≈ 5.99 µM) | 8 µg/mL (≈ 16 µM) | inactive | CCCCCCCCCCOC(=O)[C@H](Cc1c[nH]c2ccccc12)NC(=O)[C@@H](N)CCCNC(=N)N |  |  |  |  |  |  | 
15 | > 125 µg/mL | > 125 µg/mL | 10 µg/mL (≈ 17.7 µM) |  | CCCCCCCCNC(=O)c1ccc(NC(=O)[C@@H](N)CCCNC(=N)N)c(OCCc2c[nH]c3ccccc23)c1 |  |  |  |  |  |  | inhibition [15]: inactive; inhibition [16]: inactive
16 | 19 µg/mL (≈ 36.9 µM) | 42 µg/mL (≈ 81.6 µM) | 9 µg/mL (≈ 17.5 µM) |  | CCCCCCCCOC(=O)[C@H](Cc1c[nH]c2ccccc12)NC(=O)[C@H](CCCNC(=N)N)NC(C)=O |  |  |  |  |  |  | 
17 | > 125 µg/mL | 30 µg/mL (≈ 54.6 µM) | 10 µg/mL (≈ 18.2 µM) |  | CCCCCCCCc1ccc(C(=O)N[C@@H](CCCNC(=N)N)C(=O)O)c(OCCc2c[nH]c3ccccc23)c1 |  |  |  |  |  |  | inhibition [15]: inactive; inhibition [16]: inactive
18 | 21 µg/mL (≈ 36.7 µM) | 12 µg/mL (≈ 21 µM) | 8 µg/mL (≈ 14 µM) |  | CCCCCCCCOC(=O)[C@H](Cc1c[nH]c2ccccc12)NC(=O)[C@H](CCCNC(=N)N)NC(=O)OC(C)(C)C |  |  |  |  |  |  | 
19 | 5 µg/mL (≈ 11.2 µM) | 2 µg/mL (≈ 4.5 µM) | 1 µg/mL (≈ 2.25 µM) | inactive | CCCCCCCCOC(=O)[C@H](Cc1c[nH]c2ccccc12)NC(=O)[C@@H](N)CCCCN |  |  |  |  |  |  | Activity [5]: Active
20 | 45 µg/mL (≈ 88.5 µM) | 9 µg/mL (≈ 17.7 µM) | 10 µg/mL (≈ 19.7 µM) | inactive | CCCCCCCCOC(=O)[C@H](Cc1c[nH]c2ccccc12)NC(=O)[C@@H](N)CCCNc1ncccn1 |  |  |  |  |  |  | 
